{
  "source": "patent US12239686B2",
  "about": "“Immune checkpoint inhibitor combinations” (LYTIX BIOPHARMA AS, priority 2014, dated 2025)",
  "key": {"[1]": {"system": "murine A20 B-cell lymphoma", "assay": "Murine A20 B-cell lymphoma tumours in mice, intratumoural treatment", "format": "in vivo", "conditions": "for Mean tumour size (mm^2) at day 1: prior to start of treatment", "description": "The administration took place by intratumoural injection of LTX-315 dissolved in sterile saline.\nThe mice were divided into four groups (see Table 8 below for details). The intratumoural treatment was initiated when the tumours had reached the desired size of approximately 5 mm in diameter (minimum of 20 mm^2).\nThree dose levels of LTX-315, 1 mg (Group 1), 0.5 mg (Group 2) and 0.25 mg (Group 3) per injection, were investigated. The volume was 50 μl for all injections. LTX-315 was dissolved in sterile 0.9% NaCl water solution. This vehicle was used as control (Group 4). All four groups received three injections.\nA calliper was used for tumour size measurements and weighing and physical examination were used as health control."}, "human red blood cells": {"system": "human red blood cells", "assay": "Haemolytic activity in vitro", "format": "cell-based", "conditions": "1 h, 37° C.", "description": "Freshly collected human blood was centrifuged at 1500 rpm for 10 minutes in order to isolate the red blood cells. The red blood cells (RBC) were washed three times with PBS [35 mM phosphate buffer with 150 mM NaCl, pH 7.4] by centrifugation at 1500 rpm for 10 minutes, and adjusted to 10% haematocrit with PBS. LTX-315 solutions were added to give a final concentration range of the peptide from 1200 μg/ml to 1 μg/ml and an RBC concentration of 1%. The resulting suspension was incubated with agitation for one hour at 37° C. After incubation the suspension was centrifuged at 4000 rpm for 5 minutes, and the released haemoglobin were monitored by measuring the absorbance of the supernatant at 405 nm. PBS was used as negative control and assumed to cause no haemolysis. 0.1% Triton was used as positive control and assumed to cause complete haemolysis.\nReleased haemoglobin was monitored by measuring the absorbance of the supernatant at 405 nm, and percent haemolysis was calculated by the equation: […]\nLTX-315 concentration corresponding to 50% haemolysis (ECs) was determined from a dose-response curve."}, "[2]": {"system": "CT26WT colon carcinoma cells", "assay": "Re-challenge with CT26WT cells in mice with complete tumour regression", "format": "in vivo", "description": "Methods: Female Balb-c mice (n=4), previously treated with LTX-315, 1 mg) or (n=9); previously treated with LTX-315 0.5 or 1 mg) were re-inoculated (s.c. in the abdominal area) with either murine A20 B cell lymphoma cells or CT26WT colon carcinoma cells (5 million) respectively 6 weeks following initial treatment with LTX-315. Tumour growth was monitored for up to 36 days following re-inoculation."}, "A375 cells": {"system": "A375 cells", "assay": "Confocal microscopy, fluorescence-labeled peptide internalization", "format": "cell-based, human", "conditions": "1.5 and 3 μM", "description": "Fixed cells, fluorescence-labeled peptide-Subconfluential A375 cells were seeded at 8,000 cells/well as above, and transfected on the second day using the Lipofectamine LTX with Plus transfection reagents (Invitrogen) following the manufacturer's protocol. The mitochondria were labeled using the pDsRed2-Mito, and the nucleus was labeled using the GFP-Histon2B plasmid (Imaging Platform, University of Tromsø). A day after transfection, cells were washed twice with serum-free RPMI, and treated at different concentration and incubation periods with LTX-315 Pacific Blue or LTX-328 Pacific Blue.\nControl cells were treated with unlabeled LTX-315 and also with serum-free RPMI only. After incubation, cells were fixed with 4% paraformaldehyde in PBS, and the wells were covered with Prolong Gold antifade (Invitrogen). Cells were further analyzed by use of a Leica TCS SP5 confocal microscope, with a […] objective. Pacific Blue, GFP and Ds Red were excited using UV, with 488 and 561 lasers, and fluorescence channels were sequentially detected using the following band passes: UV: 420-480 nm (with attenuation), 488: 501-550 nm and 561: 576-676 nm."}, "[3]": {"conditions": "Group 1, 1 mg intratumoural days 1,2,3"}, "[4]": {"conditions": "Group 2, 0.5 mg intratumoural days 1,2,3"}, "[5]": {"conditions": "Group 3, 0.25 mg intratumoural days 1,2,3"}},
  "note": "Non-standard residues stand in square brackets, D forms with d. Residues, ends and D or L forms follow the SMILES beside them. Dip = N[C@H](C(=O)O)C(c1ccccc1)c1ccccc1",
  "data": [
    {"smiles": "NCCCC[C@H](NC(=O)[C@@H](NC(=O)[C@H](Cc1c[nH]c2ccccc12)NC(=O)[C@H](CCCCN)NC(=O)[C@H](CCCCN)NC(=O)[C@H](Cc1c[nH]c2ccccc12)NC(=O)[C@H](Cc1c[nH]c2ccccc12)NC(=O)[C@H](CCCCN)NC(=O)[C@@H](N)CCCCN)C(c1ccccc1)c1ccccc1)C(N)=O", "note": "[LTX-315, K-K-W-W-K-K-W-Dip-K-NH2] (H-KKWWKKW[Dip]K-NH2)", "values": [
      {"measurement": "Mean tumour size (mm^2) on day 4", "setting": "[1]; [3]", "result": 0, "unit": "mm^2"},
      {"measurement": "Mean tumour size (mm^2) on day 9", "setting": "[1]; [3]", "result": "3.70 ± 2.40", "unit": "mm^2"},
      {"measurement": "Mean tumour size (mm^2) on day 14", "setting": "[1]; [3]", "result": "12.43 ± 7.87", "unit": "mm^2"},
      {"measurement": "Mean tumour size (mm^2) at day 1", "setting": "[1]; [3]", "result": "25.82 ± 0.80", "unit": "mm^2"},
      {"measurement": "Relapse of Tumour", "setting": "[1]; Group 1, 1 mg x3", "result": 25, "unit": "%"},
      {"measurement": "Free of Tumour at end of Follow-Up", "setting": "[1]; Group 1, 1 mg x3, n=7", "result": 42.8, "unit": "%"},
      {"measurement": "Tumour Response: complete response", "setting": "[1]; Group 1, 1 mg x3, n=7", "result": 57.2, "unit": "%"},
      {"measurement": "Tumour Response: partial response", "setting": "[1]; Group 1, 1 mg x3, n=7", "result": 42.8, "unit": "%"},
      {"measurement": "treated mice with a complete tumour response", "setting": "[1]; Group 1, optimal dose 1 mg x3", "result": "3 of 7"},
      {"measurement": "Mean tumour size (mm^2) on day 4", "setting": "[1]; [4]", "result": 0, "unit": "mm^2"},
      {"measurement": "Mean tumour size (mm^2) on day 9", "setting": "[1]; [4]", "result": "11.41 ± 4.69", "unit": "mm^2"},
      {"measurement": "Mean tumour size (mm^2) on day 14", "setting": "[1]; [4]", "result": "61.08 ± 23.84", "unit": "mm^2"},
      {"measurement": "Mean tumour size (mm^2) at day 1", "setting": "[1]; [4]", "result": "22.03 ± 0.63", "unit": "mm^2"},
      {"measurement": "Relapse of Tumour", "setting": "[1]; Group 2, 0.5 mg x3", "result": 0, "unit": "%"},
      {"measurement": "Free of Tumour at end of Follow-Up", "setting": "[1]; Group 2, 0.5 mg x3, n=7", "result": 28.57, "unit": "%"},
      {"measurement": "Tumour Response: complete response", "setting": "[1]; Group 2, 0.5 mg x3, n=7", "result": 28.57, "unit": "%"},
      {"measurement": "Mean tumour size (mm^2) on day 4", "setting": "[1]; [5]", "result": "20.60 ± 5.71", "unit": "mm^2"},
      {"measurement": "Mean tumour size (mm^2) on day 9", "setting": "[1]; [5]", "result": "68.49 ± 12.74", "unit": "mm^2"},
      {"measurement": "Mean tumour size (mm^2) on day 14", "setting": "[1]; [5]", "result": "69.42 ± 17.70", "unit": "mm^2"},
      {"measurement": "Mean tumour size (mm^2) at day 1", "setting": "[1]; [5]", "result": "21.25 ± 0.64", "unit": "mm^2"},
      {"measurement": "Tumour Response: complete response", "setting": "[1]; Group 3, 0.25 mg x3, n=9", "result": 0, "unit": "%"},
      {"measurement": "adverse events or toxic effects", "setting": "[1]; all LTX-315 groups, apart from wound formation", "result": "no other adverse events or toxic effects were observed"},
      {"measurement": "Mean cell death (%)", "setting": "human red blood cells; LTX-315 1 μg/ml", "result": 0.0, "unit": "%"},
      {"measurement": "Mean cell death (%)", "setting": "human red blood cells; LTX-315 10 μg/ml", "result": 0.6, "unit": "%"},
      {"measurement": "Mean cell death (%)", "setting": "human red blood cells; LTX-315 50 μg/ml", "result": 1.6, "unit": "%"},
      {"measurement": "Mean cell death (%)", "setting": "human red blood cells; LTX-315 100 μg/ml", "result": 3.6, "unit": "%"},
      {"measurement": "tumour growth after re-inoculation in comparison with control animals", "setting": "[2]; 9 mice previously treated with LTX-315 0.5 or 1 mg, P<0.01", "result": "inhibition (P<0.01) of tumour growth was observed"},
      {"measurement": "animals with complete regression after re-inoculation", "setting": "[2]; of 9 re-inoculated mice", "result": 2, "unit": "animals"},
      {"measurement": "mice in which inhibition was observed after re-inoculation", "setting": "[2]; of 9 re-inoculated mice", "result": 7, "unit": "mice"},
      {"measurement": "internalization of Pacific Blue-labeled peptide", "setting": "A375 cells", "result": "showed an accumulation around the mitochondria after 30 minutes of incubation but was not detected in the cell nucleus"}
    ]}
  ]
}
